Read-outs that look alike come from different tables or passages of the source.
Legend:
[1] = cited from earlier work
[2] = in vivo; cited from earlier work
[3] = Multi-challenge study, videotaped TD movement counts (Study Four, Example 2); format: in vivo, male patients
Method: A single patient was exposed over a period of several weeks to multiple dietary challenges, at the rate of one baseline day and one challenge day per week.
The baseline days were Tuesdays and the challenge days were Wednesdays.
On both Tuesdays and Wednesdays a videotaped evaluation procedure for TD was conducted and videotaped TD movement count sessions were held. These were 2 hours post-coffee on Tuesday and 2 hours post challenge on Wednesday. Movement counts were blindly rated from the videotapes by the present inventor.
Evaluation sessions were conducted at the same time on both days with patients fasting (except for one cup of decaffeinated coffee) on the baseline days.
A carbohydrate challenge breakfast; 223 grams of carbohydrates, 1369 calories, less than 4% protein.
A 100 mg/kg challenge of Phe.
A BCAA dietary supplement as follows:
a) 2 patients had 209 mg/kg doses of BCAA powder given in orange juice
The BCAA powder given in orange juice and in the flavored formulation at 150 mg/kg and 275 mg/kg consisted of 30 parts--valine, 30 parts-isoleucineand 40 parts-leucine.

[4] = after challenge administration, most of the subjects; cited from earlier work
[5] = Plasma large neutral amino acid and phenylethylamine levels, fasting and 2 hours after protein challenge (Study Two); details: for Plasma level, Post-loading / Plasma LNAA Ratio, Post-loading: 2 hours after protein challenge; for Plasma level, Post-loading / Plasma level, Fasting / Plasma LNAA Ratio, Post-loading / Plasma LNAA Ratio, Fasting: mean ± SD
Method: Blood samples were drawn from patients after an overnight fast and 2 hours after the ingestion of a protein challenge. This challenge was served in the form of a breakfast which consisted of orange juice, a cheese omelette, ham, a waffle and coffee.
The blood samples were assayed for the levels of plasma large neutral amino acids; phenylalanine, tyrosine, tryptophan, alanine, isoleucine, leucine, valine, histidine, and threonine, and for the levels of phenylethylamine. The latter was also measured because it is a major metabolite of phenylalanine and considered to be a neuromodulator.
The plasma amino acids, with the exception of tryptophan, were analyzed by phenylisothiocyanate (PITC) derivation followed by HPLC. The analysis of tryptophan was performed using HPLC with spectrofluormetric detection.
The plasma values of the amino acids were studied both as actual levels and as the ratio of phenylalanine level to the level of the other large neutral amino acids in the plasma. This ratio serves as an index of the entry of phenylalanine into the brain, which accounts for the competition of the other large neutral amino acids (LNAA) with phenylalanine (Phe) at the blood brain barrier, as discussed. previously. This ratio is calculated as follows: [formula]

[6] = Plasma phenylalanine response to phenylalanine challenge in TD-yes and TD-no patients (Study Three); format: in vivo, psychotic males and females; details: 100 mg/kg, TD Yes vs TD No patients
From the text: In this work (Study Two and Three) the plasma level tells us the actual level of phenylalanine in the blood and the phenylalanine/large neutral amino acid ratio gives us a marker relative to the other large neutral amino acids. This ratio thus provides information on brain levels of phenylalanine, or more specifically, the penetrance past the blood brain barrier of phenylalanine. This is so because it is known that phenylalanine competes with the other large neutral amino acids, such as tyrosine, tryptophan, isoleucine, leucine and valine for entry into the brain across the blood brain barrier.

[7] = Phenylalanine challenge, akathisia symptoms (Study Three, Example 4); format: in vivo, patients (psychotic males and females); details: 100 mg/kg
Method: (§1) A third study (Study Three) was a large scale replication of Study Two with some improved technical methodology; most importantly, the switch from a protein challenge to a phenylalanine challenge and the weight standardization of the phenylalanine challenge (100 mg/kg). This investigation was conducted in 209 psychotic males and 103 psychotic females. […] This finding was independent of the age of the patient.
(§2) As shown below, the data from this study has also enabled the present inventor to study the effect of the phenylalanine challenge on the symptom levels of Parkinsonism, akathisia and tardive dystonia. This information is important in justifying the usefulness of large neutral amino acid treatments for these disorders.
The large percentage (81.0%) of patients whose symptoms were impacted by the phenylalanine challenge supports the value of plasma large neutral amino acid manipulation in the treatment of this disorder. […] Patients without coexisting TD were more likely to show a higher level of symptom worsening than those with coexisting TD. As said for Parkinsonism, above, though it is the case that there is a case by case aspect to treatment success which makes prediction difficult, one can set forth some predictive generalizations as below: […]

[8] = Phenylalanine challenge, tardive dystonia symptoms (Study Three, Example 4); format: in vivo, patients (psychotic males and females); details: 100 mg/kg
Method: as §1, §2
Thus, more than a majority of patients (57.9%) did respond to the phenylalanine challenge. […] Patients without coexisting TD were much more likely to improve their tardive dystonia symptom status after a phenylalanine challenge than patients with coexisting TD, while patients with coexisting TD were much more likely to show a higher level of symptom worsening than those without coexisting TD.

[9] = of the large neutral amino acids; cited from earlier work
[10] = Phenylalanine challenge, Parkinsonism symptoms (Study Three, Example 4); format: in vivo, patients (psychotic males and females); details: 100 mg/kg
Method: as §1, §2
185 (59.3%) of the study patients made criterion for a case of Parkinsonism; […]. […] The large percentage (88.6%) of patients whose symptoms were impacted by the phenylalanine challenge supports the value of plasma large neutral amino acid manipulation in the treatment of this disorder. Further, as is seen in Table 3 below, this pattern of change was quite similar whether or not the patient had coexisting tardive dyskinesia. Though there is a case by case aspect to treatment success which makes prediction difficult, one can set forth some predictive generalizations as below. A further caveat is that because of the possible case of the worsening of a coexisting disorder the clinician must first treat the disorder that is causing the patient the most difficulty. Difficulty would be defined by some interaction between severity of symptom and disorder.

serotonin receptors = details: animals; cited from earlier work
[11] = in vivo; cited from earlier work; remark: listed apart in the source
[12] = 2 hours, ALL (n=185), listed as Phenylalanine
[13] = TD Symptom Persistence group (n = 15)
[14] = TD Symptom Remission group (n = 15)

N[C@@H](Cc1c[nH]c2ccc(O)cc12)C(=O)O [5-hydroxytryptophan]
effect on TD ([1]; seven patients, concomitant administration with carbidopa): no change in TD

NC(Cc1c[nH]c2ccccc12)C(=O)O [D-L tryptophan]
effect on TD ([1]; 4 patients): no change in TD

CN1CCN(C2=Nc3cc(Cl)ccc3Nc3ccccc32)CC1 [clozapine]
movement disorder side-effects [2]: less likely to result in movement disorder side-effects
other side effects [2]: carries the risk of other serious life-threatening side effects

N[C@@H](Cc1ccccc1)C(=O)O [phenylalanine]
TD symptom change ([3]; Patient B, coexisting TD and tardive dystonia): did not show a symptom increase
patients with an increase in TD symptom severity ([3]; after Phe challenge 100 mg/kg): three out of four
increase in TD symptom severity, range over patients ([3]; after Phe challenge 100 mg/kg, three patients): 69% to 440
patients with an increase in TD symptom severity ([3]; after Phe challenge 100 mg/kg, listed as Phe): Three
time of peak phenylalanine plasma level [4]: 2 h
percentage change in plasma level ([5]; in vivo): larger percentage changes
post challenge phenylalanine to LNAA ratio ([5]; in vivo): significantly higher
plasma phenylalanine and phenylalanine/LNAA ratio after phenylalanine challenge [6]: statistically significant higher levels
patients whose akathisia symptoms were impacted ([7]; 2 hours): 81.0%
Akathisia BETTER, % ([7]; 2 hours, ALL (n=105)): 33.4%
Akathisia BETTER, No. ([7]; 2 hours, ALL (n=105)): 35 patients
Akathisia NO CHANGE, % ([7]; 2 hours, ALL (n=105)): 19.0%
Akathisia NO CHANGE, No. ([7]; 2 hours, ALL (n=105)): 20 patients
Akathisia WORSE, % ([7]; 2 hours, ALL (n=105)): 47.6%
Akathisia WORSE, No. ([7]; 2 hours, ALL (n=105)): 50 patients
Akathisia BETTER, % ([7]; TD-NO (n=42)): 23.8%
Akathisia BETTER, No. ([7]; TD-NO (n=42)): 10
Akathisia NO CHANGE, % ([7]; TD-NO (n=42)): 16.7%
Akathisia NO CHANGE, No. ([7]; TD-NO (n=42)): 7
Akathisia WORSE, % ([7]; TD-NO (n=42)): 59.5%
Akathisia WORSE, No. ([7]; TD-NO (n=42)): 25
Akathisia BETTER, % ([7]; TD-YES (n=63)): 39.7%
Akathisia BETTER, No. ([7]; TD-YES (n=63)): 25
Akathisia NO CHANGE, % ([7]; TD-YES (n=63)): 21.6%
Akathisia NO CHANGE, No. ([7]; TD-YES (n=63)): 13
Akathisia WORSE, % ([7]; TD-YES (n=63)): 39.7%
Akathisia WORSE, No. ([7]; TD-YES (n=63)): 25
patients whose tardive dystonia responded to the phenylalanine challenge ([8]; 2 hours): 57.9%
Tardive dystonia BETTER, % ([8]; 2 hours, ALL (n=19)): 21.0%
Tardive dystonia BETTER, No. ([8]; 2 hours, ALL (n=19)): 4 patients
Tardive dystonia NO CHANGE, % ([8]; 2 hours, ALL (n=19)): 42.1%
Tardive dystonia NO CHANGE, No. ([8]; 2 hours, ALL (n=19)): 8 patients
Tardive dystonia WORSE, % ([8]; 2 hours, ALL (n=19)): 36.9%
Tardive dystonia WORSE, No. ([8]; 2 hours, ALL (n=19)): 7 patients
Tardive dystonia BETTER, % ([8]; TD-NO (n=5)): 60.0%
Tardive dystonia BETTER, No. ([8]; TD-NO (n=5)): 3
Tardive dystonia NO CHANGE, % ([8]; TD-NO (n=5)): 40.0%
Tardive dystonia NO CHANGE, No. ([8]; TD-NO (n=5)): 2
Tardive dystonia WORSE, % ([8]; TD-NO (n=5)): 0.0%
Tardive dystonia WORSE, No. ([8]; TD-NO (n=5)): none
Tardive dystonia WORSE, No. ([8]; TD-NO (n=5), listed as Phenylalanine): 0
Tardive dystonia BETTER, % ([8]; TD-YES (n=14)): 7.1%
Tardive dystonia BETTER, No. ([8]; TD-YES (n=14)): 1
Tardive dystonia NO CHANGE, % ([8]; TD-YES (n=14)): 42.9%
Tardive dystonia NO CHANGE, No. ([8]; TD-YES (n=14)): 6
Tardive dystonia WORSE, % ([8]; TD-YES (n=14)): 50.0%
Tardive dystonia WORSE, No. ([8]; TD-YES (n=14)): 7
affinity for the blood brain barrier [9]: highest affinity for the blood brain barrier
patients whose Parkinsonism symptoms were impacted ([10]; 2 hours): 88.6%
Parkinsonism BETTER, % ([10]; 2 hours, ALL (n=185)): 42.7%
Parkinsonism BETTER, No. ([10]; 2 hours, ALL (n=185)): 79 patients
Parkinsonism NO CHANGE, % ([10]; 2 hours, ALL (n=185)): 11.3%
Parkinsonism NO CHANGE, No. ([10]; 2 hours, ALL (n=185)): 21 patients
Parkinsonism WORSE, % ([10]; 2 hours, ALL (n=185)): 45.9%
Parkinsonism WORSE, No. ([10]; 2 hours, ALL (n=185)): 85 patients
Parkinsonism WORSE, % ([10]; 2 hours, ALL (n=185), listed as Phe): 46%
Parkinsonism NO CHANGE, % [10, 12]: 11.4%
Parkinsonism WORSE, % [10, 12]: 45.9%
Parkinsonism BETTER, % ([10]; TD-NO (n=84)): 40.5%
Parkinsonism BETTER, No. ([10]; TD-NO (n=84)): 34
Parkinsonism NO CHANGE, % ([10]; TD-NO (n=84)): 13.1%
Parkinsonism NO CHANGE, No. ([10]; TD-NO (n=84)): 11
Parkinsonism WORSE, % ([10]; TD-NO (n=84)): 46.4%
Parkinsonism WORSE, No. ([10]; TD-NO (n=84)): 39
Parkinsonism BETTER, % ([10]; TD-YES (n=101)): 44.5%
Parkinsonism BETTER, No. ([10]; TD-YES (n=101)): 45
Parkinsonism NO CHANGE, % ([10]; TD-YES (n=101)): 9.9%
Parkinsonism NO CHANGE, No. ([10]; TD-YES (n=101)): 10
Parkinsonism WORSE, % ([10]; TD-YES (n=101)): 45.6%
Parkinsonism WORSE, No. ([10]; TD-YES (n=101)): 46

NCCc1ccccc1 [phenylethylamine, reference compound]
Plasma level, Percent Change (Postloading/Fasting) [5, 13]: +14.7%
Plasma level, Post-loading [5, 13]: 0.0951 ± 0.0192 ng/mL
Plasma level, Fasting [5, 13]: 0.0829 ± 0.0198 ng/mL
Plasma level, Percent Change (Postloading/Fasting) [5, 14]: +5.9%
Plasma level, Post-loading [5, 14]: 0.0927 ± 0.0218 ng/mL
Plasma level, Fasting [5, 14]: 0.0875 ± 0.0305 ng/mL
phenylethylamine level change ([5]; persistence group, but not in remission group): significantly increased
motor effect (serotonin receptors): produces a motor syndrome which can be blocked by serotonin antagonists

CC(C)NCC(O)COc1cccc2ccccc12 (centres unmarked) [propranolol]
treatment of neuroleptic-induced akathisia [11]: successful in some patients

N[C@@H](Cc1c[nH]c2ccccc12)C(=O)O [tryptophan]
effect on TD ([1]; two case reports): reduction of TD symptoms
decrease in tryptophan/LNAA ratio, greater in remittance group ([5]; in vivo): 35%
magnitude of decrease in tryptophan/LNAA ratio ([5]; in vivo): significantly greater

N[C@@H](Cc1ccc(O)cc1)C(=O)O [tyrosine]
Plasma LNAA Ratio, Percent Change (Postloading/Fasting) [5, 13]: 0%
Plasma level, Percent Change (Postloading/Fasting) [5, 13]: +23.1%
Plasma LNAA Ratio, Post-loading [5, 13]: 0.103 ± 0.012
Plasma level, Post-loading [5, 13]: 85.3 ± 22.6 µM
Plasma LNAA Ratio, Fasting [5, 13]: 0.103 ± 0.012
Plasma level, Fasting [5, 13]: 69.3 ± 14.8 µM
Plasma LNAA Ratio, Percent Change (Postloading/Fasting) [5, 14]: 0%
Plasma level, Percent Change (Postloading/Fasting) [5, 14]: +30.1%
Plasma LNAA Ratio, Post-loading [5, 14]: 0.090 ± 0.020
Plasma level, Post-loading [5, 14]: 84.3 ± 23.5 µM
Plasma LNAA Ratio, Fasting [5, 14]: 0.090 ± 0.022
Plasma level, Fasting [5, 14]: 64.8 ± 17.1 µM
percentage change in plasma level ([5]; symptom remission group vs persistence group, 30 males): larger percentage changes

CC(C)[C@H](N)C(=O)O [valine]
percentage change in plasma level ([5]; in vivo): larger percentage changes
valine/LNAA ratio change ([5]; in vivo): increased significantly

Source: patent US5919823A, “Treatment of secondary movement disorders using large neutral amino acids” (The Research Foundation For Mental Hygiene, priority 1997, dated 1999)
